# From patent US5418219A, “Pharmaceutical composition for treatment of adult respiratory distress syndrome containing human ANP” (Suntory Limited, priority 1992, dated 1995)
# Experiments:
# [1] = test system: pigs in which lung injury was induced; test: Urine excretion in pigs with HCl-induced pulmonary injury; settings: pig, ANP versus furosemide
# Experimental: New Yorkshire male pigs weighing 16-24 kg were used in all experiments. The animals were allowed neither food nor water for 44 hr before test. They were initially anesthetized by intravenous injection of pentobarbital sodium (2.0 mg/kg) and pancuronium bromide (0.1 mg/kg) and, thereafter, the anesthetization was maintained by sustained intravenous injection of pentobarbital sodium (0.5 mg/kg/hr) and pancuronium bromide (0.1 mg/kg/hr). The animals were placed in prone position and ventilated at a frequency of 17 breaths/min with a tidal volume of 10-15 ml/kg, with the partial pressure of oxygen in arterial blood (PaO2) being held at 35-45 Torr. Physiological saline (5 ml/kg) was initially infused by intravenous injection, followed by sustained intravenous injection for 30 min at a rate of 4 ml/kg/hr.
# A cannula was inserted into the bladder of each animal and urine samples were collected at 30-min intervals. Blood sampling and hemodynamic measurements were also conducted at 30-min Intervals but intermediate between collections of urine samples. Blood samples for assaying blood α-hANP levels were collected into chilled glass tubes each containing EDTA (0.1 mg/ml) and aprotinin (500 KIU/ml). […] Plasma α-hANP levels were measured by the RIA method using a rabbit anti α-hANP antibody. […]
# [2] = test system: pigs in which lung injury was induced; test: Partial pressure of oxygen in arterial blood (PaO2) in pigs with HCl-induced pulmonary injury; type: in vivo, New Yorkshire male pigs; settings: pig
# Experimental: (§1) A Teflon catheter was inserted into the femoral artery of each animal for measuring blood pressure, blood ANP level and blood gas. At the same time, a pulmonary arterial cathether was inserted through the right cephalic vein for recording the changes in pulmonary arterial pressure. Pulmonary arterial pressure (PAP) and right atrial pressure (RAP) were measured with thermistor-tipped pressure transducers. Pulmonary capillary wedge pressure (PCWP) was measured with a baloon-fitted catheter. Cardiac output (CO) was calculated from the average of three measurements by the thermodilution method. Body temperature was measured with a thermistor inserted into the pulmonary artery and maintained at 37°-38° C. with the aid of a heat jacket. Electrocardiograms were induced from the four limbs and the ECC waveform and the number of heart beats were measured.
# [3] = test system: pigs in which lung injury was induced; test: Blood pressure (BP) in pigs with HCl-induced pulmonary injury; type: in vivo, New Yorkshire male pigs; settings: pig
# Experimental: as §1
# [4] = test system: pigs in which lung injury was induced; test: Pulmonary arterial pressure (PAP) in pigs with HCl-induced pulmonary injury; type: in vivo, New Yorkshire male pigs; settings: pig
# Experimental: as §1
# [5] = baseline (before HCl aspiration)
smiles,measurement,setting,value
NS(=O)(=O)c1cc(C(=O)O)c(NCc2ccco2)cc1Cl [furosemide],intensity of diuretic action,[1],comparable to each other
same,compensation of the decrease in PaO2 induced by HCl aspiration,[2],could be compensated
same,PaO2,[2]; 60 min after HCl aspiration (before drug administration),120.5±33.1 mmHg
same,PaO2,"[2]; 60 min after administration (180 min after HCl aspiration), control 171.1",287.9±78.2 mmHg
same,PaO2,[2]; [5],490.3±29.0 mmHg
same,BP lowering action / changes in BP,[3],No significant changes
same,PAP,"[4]; after 60 min of administration (120 min after HCl aspiration), control 18.9±2.4",20.4±2.3 mmHg
same,PAP,[4]; [5],12.7±1.9 mmHg
